{"source": "patent US20190284176A1", "about": "“COMPOSITIONS AND METHODS FOR TREATING CARDIOMYOPATHY” (CASE WESTERN RESERVE UINVERSITY, priority 2018, published 2019)", "key": {"CCR2 [1]": {"target": "T1, CCR2 (Mus musculus, UniProt P51683)", "T1 construct": "tissue Jackson laboratory (mice); host or cells: whole animal: WT C57BL/6J mice; CCR2 on circulating classic monocytes / infiltrating macrophages", "T1 sequence (P51683 whole entry)": "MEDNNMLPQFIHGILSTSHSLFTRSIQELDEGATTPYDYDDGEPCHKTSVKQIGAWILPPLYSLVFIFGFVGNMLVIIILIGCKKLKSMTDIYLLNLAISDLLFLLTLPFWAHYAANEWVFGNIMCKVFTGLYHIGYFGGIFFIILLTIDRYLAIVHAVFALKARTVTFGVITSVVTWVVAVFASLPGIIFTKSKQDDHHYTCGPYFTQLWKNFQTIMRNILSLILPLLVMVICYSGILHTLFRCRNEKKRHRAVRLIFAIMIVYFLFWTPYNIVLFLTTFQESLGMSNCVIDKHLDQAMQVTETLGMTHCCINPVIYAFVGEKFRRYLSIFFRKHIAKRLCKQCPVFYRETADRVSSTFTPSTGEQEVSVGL", "experiment": "RS-504393 CCR2 blockade in early-phase TAC pressure overload hypertrophy", "type": "in vivo", "conditions": "for cardiac macrophage populations / numbers: before and after 1-wk TAC, 2 mg/kg twice daily oral gavage, FACS (FIG. 7), 2 mg/kg", "experimental": "(§1) Macrophage depletion was achieved by injection (i.v.) of Clodronate liposomes at 500 ug/kg on every other day, starting from 1-day before or 14-day after cardiac surgery as indicated in specific experiments. PBS-containing liposomes were used as vehicle control (Veh). Clodronate liposomes and control liposomes were obtained from the nonprofit Consortium Foundation Clodronate Liposomes. To inhibit monocyte trafficking in vivo, RS-504393 was dissolved in DMSO, diluted 1:20 in PBS and administrated at 2 mg/kg twice daily by oral gavage, starting from 1-3 day before or 14-day after cardiac surgery as indicated in specific experiments. PBS with 5% DMSO was used as vehicle control.\nTransverse aortic constriction (TAC) model and echocardiography were performed as described previously. Mice were anaesthetized by ketamine xylazine cocktail (100 uL i.p.) for TAC surgery to reduce aorta diameter to 27-gauge. Buprenorphine was administrated daily (i.p.) for first 5-days post-TAC. Blood pressure gradient across ligation site was confirmed by Doppler echography. For echocardiography, mice were anaesthetized by inhalation of 1% isoflurane vaporized in 100% oxygen. LV function was recorded at parasternal short axis view in B-mode and M-mode on a VEVO 770 High-Resolution In Vivo Micro-Imaging System (VisualSonics). ECHO data were recorded at steady heart rate above 500 bpm. LV function was calculated as ejection fraction (EF) or fractional shortening (FS).\nPeritoneal macrophages were collected as described previously. Cardiac macrophages were gated from whole heart cells using surface antibodies (CD45+CD11b+F4/80+Ly6G-CD64+). Mouse heart is perfused, excised, minced, digested with Type I collagenase, mechanically disrupted and filtered through 70 μm cell strainer to get single cell suspension. Cells are collected by centrifugation, subjected to live-death dye and surface antibody staining, and analyzed by flow cytometry. Cells were also sorted by flow cytometry to collect cardiac macrophages. […] After RBC lysis, cells were stained with surface antibodies and analyzed by FACS. […]"}, "CCR2 [2]": {"target": "T1, CCR2", "experiment": "RS-504393 administration from day 14 post-TAC in established pressure overload hypertrophy", "type": "in vivo", "conditions": "established POH", "experimental": "as §1\nTransverse aortic constriction (TAC) model and echocardiography were performed as described previously. […] LV function was recorded at parasternal short axis view in B-mode and M-mode on a VEVO 770 High-Resolution In Vivo Micro-Imaging System (VisualSonics). ECHO data were recorded at steady heart rate above 500 bpm. LV function was calculated as ejection fraction (EF) or fractional shortening (FS).\nTissue samples were homogenized in QIAzol lysis reagent (Qiagen, 79306) with a TissueLyser (Qiagen). […] Quantitative real-time PCR (qPCR) was performed with either the TaqMan method (Roche Universal ProbeLibrary System) or the SYBR green method on a ViiA 7 Real-Time PCR System (Applied Biosystems). […]"}}, "note": "“Also recorded” adds a separate entry of the source.", "data": [{"smiles": "Cc1ccc2c(c1)C1(CCN(CCc3nc(-c4ccccc4)oc3C)CC1)OC(=O)N2", "note": "[RS-504393]", "values": [{"measurement": "cardiac macrophage populations / numbers", "setting": "CCR2 [1]", "value": "no effect"}, {"measurement": "cardiac macrophage populations / numbers", "setting": "CCR2 [1]; listed as RS", "value": "no impact"}, {"measurement": "cardiac function / POH", "setting": "CCR2 [1]; before and after 1 wk post-TAC, echocardiography (FIG. 3A), listed as RS", "value": "no effect; also recorded: no impact"}, {"measurement": "cardiac hypertrophy", "setting": "CCR2 [2]; RS oral administration 2 wk after TAC (FIG. 16)", "value": "without affecting cardiac hypertrophy"}, {"measurement": "cardiac function (LV function by echocardiography)", "setting": "CCR2 [2]; RS oral administration 2 wk after TAC, to 6-week post-TAC (FIG. 16)", "value": "preserved cardiac function"}]}]}
